Laboratory results reported in patent publication US4322426A, “17-Substituted-6-desoxy-7,8-dihydro-6α-methylnoroxymorphone narcotic antagonists” (priority 1980, dated 1982).

How the values were obtained:
[1] = tested on: Straub tail induced by morphine; experiment: Anti-Straub Tail test, antagonism of morphine-induced Straub tail; format: in vivo, Female CF1 S mice; details: relative to naloxone
Protocol: Narcotic analgesics produce in mice an erection and arching of the tail (90° or more) which is referable to spinal cord stimulation. This Straub tail reaction is not produced by other analgesics, including the narcotic antagonists.
H. B. Dayton and P. S. Wolf, The Pharmacologist, 10, 189 (1968)]. This property is the basis of a mouse test for narcotic antagonists.
Female CF1 S mice (fasted 17-21 hrs.), 5 per dose, were injected orally or subcutaneously (loose skin inside hind limb) with test drug at 0.67, 2, 6, 18, 54 and 162 mg/kg or other appropriate doses in 0.20 ml 1% Methocel® per mouse. Ten minutes later, 40 mg/kg (base weight) of morphine sulfate in 0.20 ml 1% Methocel® per mouse was given subcutaneously (nape of neck). The mice were observed continuously for the next 20 minutes after the first mouse of a group of 30 had received morphine. Prevention of a 90° Straub tail during this observation period was taken as indication of narcotic antagonist ability.

[2] = tested on: pain induced by phenylquinone; experiment: Phenylquinone writhing test (PQW), analgesic activity; format: in vivo, female white mice; details: oral
Protocol: A standard procedure for detecting and comparing the analgesic activity of a series of compounds for which there is good correlation with human efficacy is the standard phenylquinone writhing test (PQW) modified from Siegmund, et al., Proc. Soc. Exp. Biol. Med., 95, 729 (1957). A test compound suspended in 1% methocellulose was given orally to fasted (17-21 hours) female white mice, 5-20 animals per double blind test. Aqueous (0.1% phenyl-p-benzoquinone) phenylquinone was injected intraperitoneally at 24 minutes later using 0.20 ml per mouse. […] The effective analgesic dose for 50% of the mice (ED50) was calculated by the moving average method of Thompson, W. R., Bact. Rev., 11, 115-145 (1947).

[3] = tested on: Straub tail induced by morphine; details: literature, Blumberg et al. 1968; cited from earlier work

C[C@H]1CC[C@@]2(O)[C@H]3Cc4ccc(O)c5c4[C@@]2(CCN3CC2CC2)[C@H]1O5 [Compound 1]
narcotic antagonism (in words) [1]: almost the antagonistic activity of naloxone

COc1ccc2c3c1O[C@H]1[C@@H](C)CC[C@@]4(O)[C@@H](C2)N(CC2CCCO2)CC[C@]314 (some centres unmarked) [Compound 6]
analgesic activity (in words) [2]: weakly analgetic

C[C@H]1CC[C@@]2(O)[C@H]3Cc4ccc(O)c5c4[C@@]2(CCN3CC2CCCO2)[C@H]1O5 (some centres unmarked) [Compound 7]
analgesic activity (in words) [2]: weakly analgetic

C=CCN1CC[C@]23c4c5ccc(O)c4O[C@H]2C(=O)CC[C@@]3(O)[C@H]1C5 [Naloxone]
prevention of morphine-induced Straub tail (in words) [3]: prevent the induction of Straub tail in mice

C=CCN1CC[C@]23c4c5ccc(O)c4O[C@H]2[C@@H](O)C=C[C@H]3[C@H]1C5 [nalorphine]
prevention of morphine-induced Straub tail (in words) [3]: prevent the induction of Straub tail in mice
